Measurements from EP4473961A1, “ORAL SOLID PHARMACEUTICAL FORMULATION COMPRISING METHADONE/LEVOMETHADONE AND OPTIONALLY NALOXONE” (L. MOLTENI & C. DEI FRATELLI ALITTI SOCIETA' DI ESERCIZIO …, priority 2023, dated 2024).

Tested on: crisis of withdrawal from morphine
Conditions: rat, in vivo

SMILES: CCC(=O)C(CC(C)N(C)C)(c1ccccc1)c1ccccc1 (centres unmarked) [methadone]
- effect on withdrawal symptoms: significantly reduced the symptoms
- values of the scores relative to the group treated with morphine alone: about 50%
